Results from US20250290915A1, “METHOD FOR PREDICTING RESPONSIVENESS TO THERAPY” (CANCERTAIN LIMITED, priority 2022, published 2025).

Legend:
Assay type in all cases: cell-based, human
[1] = tested on: Circulating Tumour Cells (CTCs) from a patient with colon cancer; experiment: Drug response score assay on CTCs from blood, Example 2
Protocol: (§1) CD45^+ cells and circulating tumour cells (CTCs) were isolated from a blood sample provided by each subject.
(§2) CD45 separation was performed by adding human CD45 microbeads (50 μl/ml blood), incubating for 15 minutes at 4° C. and then processing using an AutoMACS machine. This separates the blood sample into CD45^+ and CD45^−cells in 2 separate falcons. The falcon tubes are then centrifuged at 1200 rpm for 5 minutes.
(§3) The supernatant was removed from the CD45^−falcon tube, and the CD45^−cells contacted with 100 μl of FcR block and 100 μl of CD326 (EpCAM) MicroBeads, followed by incubation at […] 4° C. for 30 minutes. The CD45^−cells were then processed using an AutoMACS machine to separate the EpCAM positive and negative cells into 2 separate falcon tubes. The EpCAM-cells were discarded. The supernatant was removed from the EpCAM^+ cells, and the cells resuspended in DMEM with 2 μl Cell Tox, 2 μl MT and 2 μl MT. 20 μl of the resuspended pellet was then added to all sample wells excluding a blank. After all wells are added to, a cell count was conducted on the […] to determine the number of circulating tumour cells (CTCs).
(§4) The different cell types were each divided equally into populations, depending on the number of drugs/concentrations to be tested and plated on a cell-culture plate pre-coated with a scaffold of polycaprolactone (PCL) electrospun fibres and incubated at 37° C., 5% CO2, for 5 to (typically 10) minutes to facilitate cell attachment. After attachment, an initial imaging step was carried out using the RealTime-Glo™ MT assay from Promega (Catalogue No. G9711)) and the CellTox™ Green Cytotoxicity Assay (Promega, Catalogue No. G8741), carried out according to manufacturer's instructions. Following this initial imagining, the immunotherapeutic and/or chemotherapeutic agents were added to the cell populations as indicated below. After 10 minutes, the imagining step was repeated. The cell populations were then incubated at 37° C., 5% CO2 for 48 hours. The imaging step was then repeated. The cell populations were then re-dosed with the same immunotherapeutic and/or chemotherapeutic agents as indicated below, and incubated at 37° C., 5% CO2 for a further 48 hours. After this second 48 hour incubation, the imagining step was repeated for a final time.
(§5) At the end of this culture period, dose response scores were calculated using a normalized drug response metric as described in Gupta et al. (Communications Biology volume 3, Article number: 42 (2020), https://doi.org/10.1038/s42003-020-0765-z). The start readout for a given immunotherapeutic or chemotherapeutic agent at a given concentration was the to readout for said immunotherapeutic or chemotherapeutic agent at a specified concentration. The end readout for a given immunotherapeutic or chemotherapeutic agent at a given concentration was the final timepoint reading (t96h) for said immunotherapeutic or chemotherapeutic agent at a specified concentration.
(§6) The positive control start readout for a given drug/concentration was the to readout for the corresponding drug at a specified concentration. The positive control end readout for the corresponding drug at a specified concentration was the final timepoint reading (t96h) for the corresponding blank well.
(§7) The negative control start and end readouts for a given immunotherapeutic or chemotherapeutic agent at a given concentration were the to and final timepoint reading (t96h) respectively for blank cell or blank immuno cell well respectively.
(§8) The sensitivity or resistance of a subject's cancer to a given immunotherapeutic or chemotherapeutic agent was determined based on the calculated drug response score as shown in Table 2.
Blood samples from a patient with colon cancer were received on 3 Mar. 2022 and tested using a 1 drug panel.

[2] = tested on: Circulating Tumour Cells (CTCs) from a patient with lung cancer (adenocarcinoma); experiment: Drug response score assay on CTCs (with CD45+ cells for immunotherapy) from blood, Example 5; settings: lung cancer CTCs; for Drug sensitivity as calculated by the assay (interpretation of Drug Response Scores): Table 17
Protocol: as §1, §2
(§9) The supernatant was removed from the CD45^+falcon tube, and the cells resuspended in DMEM with 2 μl Cell Tox, 2 μl MT and 2 μl MT. 20 μl of the resuspended CD45^+ cells was then plated in each well which will contain an immunotherapy treatment.
as §3, §4, §5, §6, §7
(§10) The sensitivity or resistance of a subject's cancer to a given immunotherapeutic or chemotherapeutic agent was determined based on the calculated drug response score as shown in Table 2. […]

[3] = tested on: Circulating Tumour Cells (CTCs) from a patient with renal cancer; experiment: Drug response score assay on CTCs (with CD45+ cells for immunotherapy) from blood, Example 7; design: key to Drug response score, conc. 1 / Drug response score, conc. 2 / Drug response score, conc. 3 / Drug response score, conc. 4: normalized drug response metric per Gupta et al. 2020
Protocol: as §1, §2, §9, §3, §4, §5, §6, §7, §10

[4] = tested on: Circulating Tumour Cells (CTCs) from a patient with head and neck cancer (squamous cell carcinoma); experiment: Drug response score assay on CTCs from blood, Example 6; settings: for Drug response score, conc. 1: conc. 1: Ifos 0.125 μg/ml, Gemcit 2 μg/ml, Doxo 10 ng/ml, Etop 1 μg/ml, Metho 0.5 μg/ml, Capecit 200 μg/ml, Vinor 20 μg/ml; for Drug response score, conc. 1 / Drug response score, conc. 2 / Drug response score, conc. 3 / Drug response score, conc. 4: CTCs, t96h; for Drug response score, conc. 2: conc. 2: Ifos 0.25 μg/ml, Gemcit 10 μg/ml, Doxo 30 ng/ml, Etop 4 μg/ml, Metho 1 μg/ml, Capecit 300 μg/ml, Vinor 40 μg/ml; for Drug response score, conc. 3: conc. 3: Ifos 5 μg/ml, Gemcit 20 μg/ml, Doxo 90 ng/ml, Etop 20 μg/ml, Metho 2 μg/ml, Capecit 400 μg/ml, Vinor 80 μg/ml; for Drug response score, conc. 4: conc. 4: Ifos 10 μg/ml, Gemcit 40 μg/ml, Doxo 270 ng/ml, Etop 100 μg/ml, Metho 4 μg/ml, Capecit 600 μg/ml, Vinor 200 μg/ml; for effectiveness on Circulating Tumour Cells under laboratory conditions / Drug sensitivity as calculated by the assay (interpretation of Drug Response Scores): head and neck cancer CTCs; for Drug sensitivity as calculated by the assay (interpretation of Drug Response Scores): Table 20
Protocol: as §1, §2, §3, §4, §5, §6, §7, §8
Blood samples from a patient with head and neck cancer (squamous cell carcinoma) were received on 11 Mar. 2022 and tested using a 7 drug panel.

[5] = tested on: Circulating Tumour Cells (CTCs, EpCam+CD45−) from a patient with stage II synovial sarcoma; experiment: Drug response score assay (RealTime-Glo MT / CellTox Green, PCL scaffold) on CTCs from blood, Example 1; design: key to Drug response score, conc. 1 / Drug response score, conc. 2 / Drug response score, conc. 3 / Drug response score, conc. 4: normalized drug response metric per Gupta et al. 2020
Protocol: as §1, §2, §3, §4, §5, §6, §7, §8
Blood samples from a patient with stage II synovial sarcoma (suspected spindle cell tumour) were received and tested using a 6 drug panel.
Chemotherapeutic agents were tested as in Table 3.

[6] = tested on: Circulating Tumour Cells (CTCs) from a patient with colon cancer (sigmoid colon cancer); experiment: Drug response score assay on CTCs from blood, Example 8; design: key to Drug response score, conc. 1 / Drug response score, conc. 2 / Drug response score, conc. 3 / Drug response score, conc. 4: normalized drug response metric (Gupta et al. 2020)
Protocol: as §1, §2, §3
as §4, with “After” for “The different cell types were each divided equally into populations, depending on the number of drugs/concentrations to be tested and plated on a cell-culture plate pre-coated with a scaffold of polycaprolactone (PCL) electrospun fibres and incubated at 37° C., 5% CO2, for 5 to (typically 10) minutes to facilitate cell attachment. After”
as §5, §6, §7, §8
Blood samples from a patient with colon cancer (sigmoid colon cancer) were received on 8 Mar. 2022 and tested using a 9 drug panel.
Chemotherapeutic agents were tested as in Table 24.

## N.N.[Cl][Pt][Cl] [Cisplatin]
[1]; Cisplatin 2 μg/ml, CTCs, t96h
  Drug response score, conc. 1: 2.719
[1]; Cisplatin 4 μg/ml, CTCs, t96h
  Drug response score, conc. 2: 2.874
[1]; Cisplatin 10 μg/ml, CTCs, t96h
  Drug response score, conc. 3: 3.012
[1]; Cisplatin 20 μg/ml, CTCs, t96h
  Drug response score, conc. 4: 3.259
[1]; colon cancer CTCs
  effectiveness on Circulating Tumour Cells under laboratory conditions: not effective
[1]; colon cancer CTCs, Table 8
  Drug sensitivity as calculated by the assay (interpretation of Drug Response Scores): Resistant

## Nc1ccn([C@@H]2O[C@H](CO)[C@@H](O)C2(F)F)c(=O)n1 [Gemcitabine]
[2]
  effectiveness on Circulating Tumour Cells (CTCs) under laboratory conditions: marginally more effective than other agents
  Drug sensitivity as calculated by the assay (interpretation of Drug Response Scores): S++
[3]; conc. 1: Pembr 20 μg/ml (CTCs + CD45+ cells), Docetax 0.02 μg/ml, Gemcit 2 μg/ml, Topo 5 μg/ml, Etop 1 μg/ml, Eribul 5 μg/ml (CTCs), t96h
  Drug response score, conc. 1: −0.1637
[3]; conc. 2: Pembr 40 μg/ml (CTCs + CD45+ cells), Docetax 0.2 μg/ml, Gemcit 10 μg/ml, Topo 10 μg/ml, Etop 4 μg/ml, Eribul 10 μg/ml (CTCs), t96h
  Drug response score, conc. 2: 0.0725
[3]; conc. 3: Pembr 100 μg/ml (CTCs + CD45+ cells), Docetax 2 μg/ml, Gemcit 20 μg/ml, Topo 50 μg/ml, Etop 20 μg/ml, Eribul 20 μg/ml (CTCs), t96h
  Drug response score, conc. 3: −0.3154
[3]; conc. 4: Pembr 160 μg/ml (CTCs + CD45+ cells), Docetax 10 μg/ml, Gemcit 40 μg/ml, Topo 100 μg/ml, Etop 100 μg/ml, Eribul 40 μg/ml (CTCs), t96h
  Drug response score, conc. 4: −0.0871
[3]; renal cancer CTCs
  effectiveness on Circulating Tumour Cells under laboratory conditions: Sensitive S++
[3]; renal cancer CTCs, Table 23
  Drug sensitivity as calculated by the assay (interpretation of Drug Response Scores): Sensitive (S++)
[4]
  Drug response score, conc. 1: 0.9091
  Drug response score, conc. 2: 0.8443
  Drug response score, conc. 3: 0.6925
  Drug response score, conc. 4: 0.3157
  effectiveness on Circulating Tumour Cells under laboratory conditions: Sensitive S+
  Drug sensitivity as calculated by the assay (interpretation of Drug Response Scores): Sensitive (S+)
[5]; conc. 1: Doxo 10 ng/ml, Ifos 0.125 μg/ml, Gemcit 2 μg/ml, Doce 0.02 μg/ml, Carbo 2 μg/ml, Dacarb 1.5 μg/ml, CTCs, t96h, re-dosed at 48 h
  Drug response score, conc. 1: 0.9382
[5]; conc. 2: Doxo 30 ng/ml, Ifos 0.25 μg/ml, Gemcit 10 μg/ml, Doce 0.2 μg/ml, Carbo 5 μg/ml, Dacarb 3 μg/ml, CTCs, t96h
  Drug response score, conc. 2: 0.4695
[5]; conc. 3: Doxo 90 ng/ml, Ifos 5 μg/ml, Gemcit 20 μg/ml, Doce 2 μg/ml, Carbo 10 μg/ml, Dacarb 6 μg/ml, CTCs, t96h
  Drug response score, conc. 3: 0.5149
[5]; conc. 4: Doxo 270 ng/ml, Ifos 10 μg/ml, Gemcit 40 μg/ml, Doce 10 μg/ml, Carbo 20 μg/ml, Dacarb 12 μg/ml, CTCs, t96h
  Drug response score, conc. 4: 0.4075
[5]; synovial sarcoma CTCs, Table 5
  Drug sensitivity as calculated by the assay (interpretation of Drug Response Scores): Sensitive (S+)

## CN(Cc1cnc2nc(N)nc(N)c2n1)c1ccc(C(=O)N[C@@H](CCC(=O)O)C(=O)O)cc1 [Methotrexate]
[2]
  Drug sensitivity as calculated by the assay (interpretation of Drug Response Scores): S++
[4]
  Drug response score, conc. 1: 0.9711
  Drug response score, conc. 2: 0.9988
  Drug response score, conc. 3: 1.0559
  Drug response score, conc. 4: 0.7375
  effectiveness on Circulating Tumour Cells under laboratory conditions: not effective
  Drug sensitivity as calculated by the assay (interpretation of Drug Response Scores): Resistant

## CCC1=C[C@@H]2CN(C1)Cc1c([nH]c3ccccc13)[C@@](C(=O)OC)(c1cc3c(cc1OC)N(C)[C@H]1[C@@](O)(C(=O)OC)[C@H](OC(C)=O)[C@]4(CC)C=CCN5CC[C@]31[C@@H]54)C2 [Vinorelbine]
[6]; conc. 1 of each drug as in Table 24, CTCs, t96h
  Drug response score, conc. 1: 0.0721
[6]; conc. 2 of each drug as in Table 24, CTCs, t96h
  Drug response score, conc. 2: −0.6648
[6]; conc. 3 of each drug as in Table 24, CTCs, t96h
  Drug response score, conc. 3: 0.2340
[6]; conc. 4 of each drug as in Table 24, CTCs, t96h
  Drug response score, conc. 4: −0.5738
[6]; sigmoid colon cancer CTCs, Table 26
  Drug sensitivity as calculated by the assay (interpretation of Drug Response Scores): Sensitive (S+)
[2]
  Drug sensitivity as calculated by the assay (interpretation of Drug Response Scores): S++
[4]
  Drug response score, conc. 1: 0.6102
  Drug response score, conc. 2: 0.9691
  Drug response score, conc. 3: 0.4733
  Drug response score, conc. 4: 0.8073
  effectiveness on Circulating Tumour Cells under laboratory conditions: Sensitive S+
  Drug sensitivity as calculated by the assay (interpretation of Drug Response Scores): Sensitive (S+)
